{"source": "patent US11512078B2", "about": "“Addition salt of S1P1 receptor agonist and crystal form thereof, and pharmaceutical composition” (SUZHOU CONNECT BIOPHARMACEUTICALS, LTD., priority 2018, dated 2022)", "key": {"[1]": {"experiment": "Crystal form stability of free state in solvents (Comparative Example 1 of CN105315266A)", "assay_type": "physicochemical", "from_the_text": "Identification, preparation, a composition and use of the compound represented by formula A are disclosed in patent document CN103450171A (which is incorporated herein by reference in its entirety). Specifically, a method for preparing the compound is disclosed in Example 2. 12 crystal forms of the compound represented by formula A are disclosed in patent document CN105315266A (which is incorporated herein by reference in its entirety)."}, "[2]": {"conditions": "start: crystal forms I-XII and amorphous form, cited from earlier work"}, "[3]": {"experiment": "Solubility of free state and salt forms in water by HPLC", "assay_type": "physicochemical", "conditions": "stirred 2 h at 25° C., filtered", "description": "HPLC solubility data were collected with Agilent 1260 high performance liquid chromatograph. The chromatographic column used was Poroshell 120 EC-C18 ([…]), the detection wavelength was 254 nm, column temperature for detection was 40° C., flow rate was 1.5 mL/min, and the sample volume was 5 μL. A sample was dissolved in mobile phase B to prepare a sample solution of a concentration about 0.45 mg/mL, and HPLC detection was performed according to the following gradient elution mode to obtain concentration in the sample.\nThen samples were taken and filtered, and the concentrations were detected by HPLC. The solubility of the active ingredient in each of the samples in water was calculated."}, "[4]": {"experiment": "Crystal form stability of salt forms as suspensions in solvents", "conditions": "for Crystal form after stirring suspension: room temperature"}, "[5]": {"experiment": "Hygroscopicity by DVS", "assay_type": "physicochemical", "conditions": "relative humidity 20%-80%; for Moisture uptake: DVS; for Appearance: after DVS", "description": "Dynamic Vapor Sorption (DVS) data and isothermal sorption analysis data were collected with TA Instruments Q5000 TGA. The detection method used was as follows: 1-10 mg of a sample was placed in a platinum crucible, and weight change with the change of relative humidity from 20% to 80% was detected."}, "[6]": {"experiment": "Crystal form storage stability, 30 days under conventional, high-temperature and accelerated conditions", "assay_type": "physicochemical", "conditions": "1 month under conventional, high-temperature (60° C.) and accelerated conditions (40° C.-75% relative humidity)", "description": "The crystal form of the sulfate of the compound represented by formula A and the crystal form of the maleate of the compound represented by formula A according to the present application were taken to perform a stability experiment. Specific operation was as follows: 60 mg of the samples of the crystal form of the sulfate of the compound represented by formula A and the crystal form of the maleate of the compound represented by formula A according to the present application were taken and placed for 30 days respectively under conventional condition (sealed and placed in a dark place at 25° C.), high-temperature condition (sealed and placed in a dark place at 60° C.) and accelerated condition (opened and placed in a dark place at 40° C.-75% relative humidity) to study crystal form stability."}, "[7]": {"experiment": "Solubility of sodium salt in water (water gradually added until clear)", "assay_type": "physicochemical", "conditions": "thermodynamic from solid; in water at 25° C.; deionized water gradually added, ultrasonication to clear solution", "description": "The solubility of the sample in water was calculated."}, "[8]": {"experiment": "Storage stability of sodium salt crystal form, 4 months", "assay_type": "physicochemical", "conditions": "room temperature, relative humidity 10%-90%"}, "[9]": {"experiment": "Thermal stability, decomposition temperature by TGA", "assay_type": "physicochemical", "description": "Thermogravimetric Analysis (TGA) data were collected with TA Instruments Q500 TGA. The detection method used was as follows: 5-15 mg of a samples was placed in a platinum crucible, and a segmented high-resolution detection method was adopted in which the temperature of the sample was increased from room temperature to 300° C. at a heating rate of 10° C./min under the protection of 40 mL/min dry N2."}}, "note": "Read-outs that look alike come from different tables or passages of the source.", "data": [{"smiles": "CC(C)Cc1ccc(-c2nc(-c3ccc(CN4CC(C(=O)O)C4)c(F)c3)no2)cc1", "note": "[1-{2-fluoro-4-[5-(4-isobutylphenyl)-1,2,4-oxadiazole-3-yl]benzyl}-3-azetidinecarboxylic acid]", "values": [{"measurement": "Most stable crystal form", "setting": "[1]; in an organic solvent", "value": "crystal form IV"}, {"measurement": "Most stable crystal form", "setting": "[1]; in water", "value": "crystal form I"}, {"measurement": "Final crystal form", "setting": "[2]; Acetone", "value": "Crystal form IV"}, {"measurement": "Final crystal form", "setting": "[2]; Ethanol", "value": "Crystal form IV"}, {"measurement": "Final crystal form", "setting": "[2]; Isopropanol", "value": "Crystal form IV"}, {"measurement": "Final crystal form", "setting": "[2]; Water:acetone = 1:1", "value": "Crystal form I"}, {"measurement": "Final crystal form", "setting": "[2]; Water:acetone = 1:5", "value": "Crystal form I"}, {"measurement": "Final crystal form", "setting": "[2]; Water:acetone = 1:10", "value": "Crystal form I"}, {"measurement": "Final crystal form", "setting": "[2]; Water:acetone = 1:100", "value": "Crystal form I"}, {"measurement": "Final crystal form", "setting": "[2]; Water:ethanol = 1:1", "value": "Crystal form I"}, {"measurement": "Final crystal form", "setting": "[2]; Water:ethanol = 1:5", "value": "Crystal form I"}, {"measurement": "Final crystal form", "setting": "[2]; Water:ethanol = 1:10", "value": "Crystal form I"}, {"measurement": "Final crystal form", "setting": "[2]; Water:ethanol = 1:100", "value": "Crystal form I"}, {"measurement": "Final crystal form", "setting": "[2]; Water", "value": "Crystal form I"}, {"measurement": "Solubility", "setting": "[3]; listed as compound represented by formula A", "value": 1.1, "unit": "µg/mL"}]}, {"smiles": "CC(C)Cc1ccc(-c2nc(-c3ccc(CN4CC(C(=O)O)C4)c(F)c3)no2)cc1.O=C(O)/C=C\\C(=O)O", "note": "[maleate of 1-{2-fluoro-4-[5-(4-isobutylphenyl)-1,2,4-oxadiazole-3-yl]benzyl}-3-azetidinecarboxylic acid]", "values": [{"measurement": "Crystal form after stirring suspension", "setting": "[4]; Acetone, 3 days", "value": "No change"}, {"measurement": "Crystal form after stirring suspension", "setting": "[4]; Ethanol, 3 days", "value": "No change"}, {"measurement": "Crystal form after stirring suspension", "setting": "[4]; Isopropanol, 3 days", "value": "No change"}, {"measurement": "Crystal form after stirring suspension", "setting": "[4]; Water, 3 days", "value": "No change"}, {"measurement": "Crystal form after stirring suspension", "setting": "[4]; Water:acetone = 1:1, 3 days", "value": "No change"}, {"measurement": "Crystal form after stirring suspension", "setting": "[4]; Water:acetone = 1:5, 3 days", "value": "No change"}, {"measurement": "Crystal form after stirring suspension", "setting": "[4]; Water:acetone = 1:10, 3 days", "value": "No change"}, {"measurement": "Crystal form after stirring suspension", "setting": "[4]; Water:acetone = 1:100, 3 days", "value": "No change"}, {"measurement": "Crystal form after stirring suspension", "setting": "[4]; Water:ethanol = 1:1, 3 days", "value": "No change"}, {"measurement": "Crystal form after stirring suspension", "setting": "[4]; Water:ethanol = 1:5, 3 days", "value": "No change"}, {"measurement": "Crystal form after stirring suspension", "setting": "[4]; Water:ethanol = 1:10, 3 days", "value": "No change"}, {"measurement": "Crystal form after stirring suspension", "setting": "[4]; Water:ethanol = 1:100, 3 days", "value": "No change"}, {"measurement": "Stability of crystal form in aqueous systems", "setting": "[4]", "value": "stable"}, {"measurement": "Moisture uptake", "setting": "[5]", "value": 0.4, "unit": "%"}, {"measurement": "Appearance", "setting": "[5]", "value": "Powder"}, {"measurement": "Appearance, XRPD pattern and melting point after storage", "setting": "[6]", "value": "unchanged"}, {"measurement": "solubility at 2 h", "setting": "[3]; deionized water, 25 °C, water, thermodynamic from solid", "value": 16, "unit": "µg/mL"}, {"measurement": "Solubility", "setting": "[3]", "value": 16.1, "unit": "µg/mL"}]}, {"smiles": "CC(C)Cc1ccc(-c2nc(-c3ccc(CN4CC(C(=O)[O-])C4)c(F)c3)no2)cc1.[Na+]", "note": "[sodium salt of 1-{2-fluoro-4-[5-(4-isobutylphenyl)-1,2,4-oxadiazole-3-yl]benzyl}-3-azetidinecarboxylic acid]", "values": [{"measurement": "Crystal form after stirring suspension", "setting": "[4]; Acetone, 3 days", "value": "No change"}, {"measurement": "Crystal form after stirring suspension", "setting": "[4]; Ethanol, 3 days", "value": "No change"}, {"measurement": "Crystal form after stirring suspension", "setting": "[4]; Isopropanol, 3 days", "value": "No change"}, {"measurement": "Crystal form after stirring suspension", "setting": "[4]; Water, 3 days", "value": "No change"}, {"measurement": "Crystal form after stirring suspension", "setting": "[4]; Water:acetone = 1:1, 3 days", "value": "No change"}, {"measurement": "Crystal form after stirring suspension", "setting": "[4]; Water:acetone = 1:5, 3 days", "value": "No change"}, {"measurement": "Crystal form after stirring suspension", "setting": "[4]; Water:acetone = 1:10, 3 days", "value": "No change"}, {"measurement": "Crystal form after stirring suspension", "setting": "[4]; Water:acetone = 1:100, 3 days", "value": "No change"}, {"measurement": "Crystal form after stirring suspension", "setting": "[4]; Water:ethanol = 1:1, 3 days", "value": "No change"}, {"measurement": "Crystal form after stirring suspension", "setting": "[4]; Water:ethanol = 1:5, 3 days", "value": "No change"}, {"measurement": "Crystal form after stirring suspension", "setting": "[4]; Water:ethanol = 1:10, 3 days", "value": "No change"}, {"measurement": "Crystal form after stirring suspension", "setting": "[4]; Water:ethanol = 1:100, 3 days", "value": "No change"}, {"measurement": "Stability of crystal form in aqueous systems", "setting": "[4]", "value": "stable"}, {"measurement": "Solubility", "setting": "[7]", "value": 10000, "unit": "µg/mL"}, {"measurement": "Appearance, XRPD pattern and melting point after storage", "setting": "[8]", "value": "unchanged"}, {"measurement": "Decomposition temperature", "setting": "[9]", "value": 275, "unit": "°C"}]}, {"smiles": "CC(C)Cc1ccc(-c2nc(-c3ccc(CN4CC(C(=O)O)C4)c(F)c3)no2)cc1", "note": "[sulfate of 1-{2-fluoro-4-[5-(4-isobutylphenyl)-1,2,4-oxadiazole-3-yl]benzyl}-3-azetidinecarboxylic acid]", "values": [{"measurement": "Crystal form after stirring suspension", "setting": "[4]; Acetone, 3 days", "value": "No change"}, {"measurement": "Crystal form after stirring suspension", "setting": "[4]; Ethanol, 3 days", "value": "No change"}, {"measurement": "Crystal form after stirring suspension", "setting": "[4]; Isopropanol, 3 days", "value": "No change"}, {"measurement": "Crystal form after stirring suspension", "setting": "[4]; Water, 3 days", "value": "No change"}, {"measurement": "Crystal form after stirring suspension", "setting": "[4]; Water:acetone = 1:1, 3 days", "value": "No change"}, {"measurement": "Crystal form after stirring suspension", "setting": "[4]; Water:acetone = 1:5, 3 days", "value": "No change"}, {"measurement": "Crystal form after stirring suspension", "setting": "[4]; Water:acetone = 1:10, 3 days", "value": "No change"}, {"measurement": "Crystal form after stirring suspension", "setting": "[4]; Water:acetone = 1:100, 3 days", "value": "No change"}, {"measurement": "Crystal form after stirring suspension", "setting": "[4]; Water:ethanol = 1:1, 3 days", "value": "No change"}, {"measurement": "Crystal form after stirring suspension", "setting": "[4]; Water:ethanol = 1:5, 3 days", "value": "No change"}, {"measurement": "Crystal form after stirring suspension", "setting": "[4]; Water:ethanol = 1:10, 3 days", "value": "No change"}, {"measurement": "Crystal form after stirring suspension", "setting": "[4]; Water:ethanol = 1:100, 3 days", "value": "No change"}, {"measurement": "Stability of crystal form in aqueous systems", "setting": "[4]", "value": "stable"}, {"measurement": "Moisture uptake", "setting": "[5]", "value": 0.7, "unit": "%"}, {"measurement": "Appearance", "setting": "[5]", "value": "Powder"}, {"measurement": "Appearance, XRPD pattern and melting point after storage", "setting": "[6]", "value": "unchanged"}, {"measurement": "Solubility", "setting": "[3]", "value": 19.2, "unit": "µg/mL"}, {"measurement": "Solubility", "setting": "[3]; listed as sulfate of the compound represented by formula A", "value": 19, "unit": "µg/mL"}]}]}
